Strand notation (5' to 3'): a small letter for the sugar, then the base; units joined by * are phosphorothioate-linked, units joined directly phosphodiester-linked; [ ] holds rarer units or linkages, { } end groups; capitals alone tell only the bases. {Alk-C6-SMPT-C6} = Alk-C6-SMPT-C6 linker modification, as named by the publication; [invdT] = inverted (3'-3') thymidine; e = 2'-O-(2-methoxyethyl) (MOE); m = 2'-O-methyl; f = 2'-fluoro
Test system: human (tumor) Hif2α (EPAS1) mRNA
Experiment: Hif2α knockdown in orthotopic RCC tumor bearing mice, single injection of RNAi trigger-delivery polymer conjugate, RT-qPCR (Table 7)
Assay type: in vivo
Details: RNAi trigger 50 μg, polymer 064 125 μg; single tail vein injection; relative to isotonic glucose
Outline: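 Female athymic nude mice carried orthotopic A498-SEAP ccRCC kidney tumours, used 5–6 weeks after implantation. They received one tail-vein injection of RGD-targeted Hif2α RNAi trigger–polymer conjugate or isotonic glucose. Tumour Hif2α mRNA was measured by TaqMan RT-qPCR normalised to CycA (ΔΔCT) and expressed relative to glucose-treated mice.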

Substance | Relative Expression day 4 (Hif2α mRNA in kidney tumor)
AD03253 (antisense UUUCAUGAAAUCGUUACGUUG; sense ACGUAACGAUUUCAUGAAAT; Hif2alpha RNAi agent antisense strand; modified_base 2,4,6,8,14 /mod_base = “2′-deoxy-2′-fluoro corresponding nucleoside”; modified_base 1,3,5,7,9,10,11,12,13,15,16,17,18,19,20,21 /mod_base = “2′-O-methyl corresponding nucleoside”; modified_base 2,3,20,21 /mod_base = “5′-phosphorothioate corresponding nucleotide”; Hif2alpha RNAi agent sense strand; modified_base 7,8,9 /mod_base = “2′-deoxy-2′-fluoro corresponding nucleoside”; modified_base 1,2,3,4,5,6,10,11,12,13,14,15,16,17,18,19 /mod_base = “2′-O-methyl corresponding nucleoside”; modified_base 20 /mod_base = “3′-3′-linked nucleotide”; modi) | 0.188
AD03254 (antisense AUUCAUGAAAUCGUUACGUUG; sense ACGUAACGAUUUCAUGAAUT; Hif2alpha RNAi agent antisense strand; modified_base 2,4,6,8,14 /mod_base = “2′-deoxy-2′-fluoro corresponding nucleoside”; modified_base 1,3,5,7,9,10,11,12,13,15,16,17,18,19,20,21 /mod_base = “2′-O-methyl corresponding nucleoside”; modified_base 2,3,20,21 /mod_base = “5′-phosphorothioate corresponding nucleotide”; Hif2alpha RNAi agent sense strand; modified_base 7,8,9 /mod_base = “2′-deoxy-2′-fluoro corresponding nucleoside”; modified_base 1,2,3,4,5,6,10,11,12,13,14,15,16,17,18,19 /mod_base = “2′-O-methyl corresponding nucleoside”; modified_base 20 /mod_base = “3′-3′-linked nucleotide”; modi) | 0.295
AD03255 (antisense UUUCAUGAAAUCGUUACGUUGAT; sense AACGUAACGAUUUCAUGAAAT; Hif2alpha RNAi agent antisense strand; modified_base 2,4,6,8,14 /mod_base = “2′-deoxy-2′-fluoro corresponding nucleoside”; modified_base 1,3,5,7,9,10,11,12,13,15,16,17,18,19,20,21,22 /mod_base = “2′-O-methyl corresponding nucleoside”; modified_base 23 /mod_base = “3′-3′-linked nucleotide”; modified_base 2,3,22,23 /mod_base = “5′-phosphorothioate corresponding nucleotide”; Hif2alpha RNAi agent sense strand; modified_base 8,9,10 /mod_base = “2′-deoxy-2′-fluoro corresponding nucleoside”; modified_base 1,2,3,4,5,6,7,11,12,13,14,15,16,17,18,19,20 /mod_base = “2′-O-methyl corresponding nucleoside”) | 0.264
AD03256 (antisense AUUCAUGAAAUCGUUACGUUGAT; sense AACGUAACGAUUUCAUGAAUT; Hif2alpha RNAi agent antisense strand; modified_base 2,4,6,8,14 /mod_base = “2′-deoxy-2′-fluoro corresponding nucleoside”; modified_base 1,3,5,7,9,10,11,12,13,15,16,17,18,19,20,21,22 /mod_base = “2′-O-methyl corresponding nucleoside”; modified_base 23 /mod_base = “3′-3′-linked nucleotide”; modified_base 2,3,22,23 /mod_base = “5′-phosphorothioate corresponding nucleotide”; Hif2alpha RNAi agent sense strand; modified_base 8,9,10 /mod_base = “2′-deoxy-2′-fluoro corresponding nucleoside”; modified_base 1,2,3,4,5,6,7,11,12,13,14,15,16,17,18,19,20 /mod_base = “2′-O-methyl corresponding nucleoside”) | 0.333
AD03257 (antisense UUUCAUGAAAUCGUUACGUUG; sense ACGUAACGAUUUCAUGAAAT; Hif2alpha RNAi agent antisense strand; modified_base 2,8,10,14 /mod_base = “2′-deoxy-2′-fluoro corresponding nucleoside”; modified_base 1,3,4,5,6,7,9,11,12,13,15,16,17,18,19,20,21 /mod_base = “2′-O-methyl corresponding nucleoside”; modified_base 2,3,20,21 /mod_base = “5′-phosphorothioate corresponding nucleotide”; Hif2alpha RNAi agent sense strand; modified_base 7,8,9 /mod_base = “2′-deoxy-2′-fluoro corresponding nucleoside”; modified_base 1,2,3,4,5,6,10,11,12,13,14,15,16,17,18,19 /mod_base = “2′-O-methyl corresponding nucleoside”; modified_base 20 /mod_base = “3′-3′-linked nucleotide”; modi) | 0.203
AD03258 (antisense AUUCAUGAAAUCGUUACGUUG; sense ACGUAACGAUUUCAUGAAUT; Hif2alpha RNAi agent antisense strand; modified_base 2,8,10,14 /mod_base = “2′-deoxy-2′-fluoro corresponding nucleoside”; modified_base 1,3,4,5,6,7,9,11,12,13,15,16,17,18,19,20,21 /mod_base = “2′-O-methyl corresponding nucleoside”; modified_base 2,3,20,21 /mod_base = “5′-phosphorothioate corresponding nucleotide”; Hif2alpha RNAi agent sense strand; modified_base 7,8,9 /mod_base = “2′-deoxy-2′-fluoro corresponding nucleoside”; modified_base 1,2,3,4,5,6,10,11,12,13,14,15,16,17,18,19 /mod_base = “2′-O-methyl corresponding nucleoside”; modified_base 20 /mod_base = “3′-3′-linked nucleotide”; modi) | 0.137
AD03259 (antisense AUUCAUGAAAUCGUUACGUTG; sense ACGUAACGAUUUCAUGAATT; Hif2alpha RNAi agent antisense strand; modified_base 2,8,10,14 /mod_base = “2′-deoxy-2′-fluoro corresponding nucleoside”; modified_base 1,3,4,5,6,7,9,11,12,13,15,16,17,18,19 /mod_base = “2′-O-methyl corresponding nucleoside”; modified_base 20,21 /mod_base = “2′-MOE nucleotide”; modified_base 2,3,20,21 /mod_base = “5′-phosphorothioate corresponding nucleotide”; Hif2alpha RNAi agent sense strand; modified_base 7,8,9 /mod_base = “2′-deoxy-2′-fluoro corresponding nucleoside”; modified_base 1,2,3,4,5,6,10,11,12,13,14,15,16,17 /mod_base = “2′-O-methyl corresponding nucleoside”; modified_base 20 /m) | 0.179
AD03260 (antisense AUUCAUGAAAUCGUUACGUUG; sense ACGUAACGAUUUCAUGAATT; Hif2alpha RNAi agent antisense strand; modified_base 2,8,10,14 /mod_base = “2′-deoxy-2′-fluoro corresponding nucleoside”; modified_base 1,3,4,5,6,7,9,11,12,13,15,16,17,18,19,20,21 /mod_base = “2′-O-methyl corresponding nucleoside”; modified_base 2,3,20,21 /mod_base = “5′-phosphorothioate corresponding nucleotide”; Hif2alpha RNAi agent sense strand; modified_base 7,8,9 /mod_base = “2′-deoxy-2′-fluoro corresponding nucleoside”; modified_base 1,2,3,4,5,6,10,11,12,13,14,15,16,17 /mod_base = “2′-O-methyl corresponding nucleoside”; modified_base 20 /mod_base = “3′-3′-linked nucleotide”; modified_b) | 0.175
AD03261 (antisense mA*fU*mUmCmAmUmGfAmAfAmUmCmGfUmUmAmCmGmU*mU*mG; sense ACGUAACGAUUUCAUGAAT; siRNA; sense: sugars from the 5' end e2 m4 f3 m8 e2, [invdT] at 3' end, linkages s1 o18 (s phosphorothioate, o phosphodiester), 5' {Alk-C6-SMPT-C6}, methylation of C not given here; further chemistry not fully specified) | 0.177

Reference: patent publication US9976141B2, “Compositions and methods for inhibiting gene expression of Hif2alpha” (Arrowhead Madison Inc., priority 2015, dated 2018)
